Reference: patent publication US6403635B1, “Method of treating atherosclerosis or restenosis using microtubule stabilizing agent” (The United States of America as represented by the …, priority 1993, dated 2002)

Assays:
c-fos mRNA expression = test: PDGF-BB-stimulated c-fos mRNA expression in cultured VSMC; type: cell-based, rat
rat carotid artery = test: Balloon catheter injury of the rat carotid artery (restenosis model); type: in vivo, Wistar rats
Description: Under a protocol approved by the National Institute on Aging Animal Care and use Committee, 6 month Wistar rats from the GRC colony wee anesthetized with 20 mg/kg body weight phenobarbital, 2 mg/kg body weight ketamine, and 4 mg/kg body weight xylazine intraperitoneally. The left external carotid artery was cannulated with 2-French Fogarty embolectomy catheter, inflated with saline and passed three times up and down the common carotid artery to produce a distending, deendothelializing injury. […] Cross sections of the carotids were mounted on microscope slides and stained with hematoxylin and eosin stain. The image of the carotid artery was projected onto a digitizing board and the cross sectional areas of the intima and the media were measured. As indicated in the prior art (Ferns, G. A. A. et al. (1991) Science, 253:1129-1132) the rat carotid artery injury model of restenosis can be useful in the study of human restenosis, and indicate potential therapeutic action in humans.

polymerized tubulin = test: Microtubule bundling in cultured VSMC (anti-tubulin antibody labelling); type: cell-based, rat
Text: In deuterium oxide-treated cells, ^2H2O (v/v) was substituted for water (H2O) in the preparation of the DMEM from concentrated stock. […], cells were fixed in 3.7% formalin, premeabilized with 1% Triton X-100, and polymerized tubulin was labelled with mouse anti-β-tubulin antibody (SMI 62 monoclonal antibody to polymerized β-tubulin, Paragon Biotec, Inc., Baltimore, Md.). […] Representative light photomicrographs from (FIG. 5A) control, and (FIG. 5B) 75% deuterium oxide treated VSMCs are shown in FIGS. 5A-5B.

VSMC [1] = test: Chemotaxis assay (Boyden chamber without basement membrane proteins), PDGF-BB as attractant; type: cell-based, rat; conditions: filter coated only with fibronectin and collagen I
Description: Chemoinvasion (Boyden chamber) assays were performed using modified Boyden chamber (Albini, et al. (1987) Cancer Res., 47:3239-3245), comprising an upper chamber separated from a lower chamber by a porous PVPF filter. PVPF filters (8 μm pore diameter, Nucleopore Filters, Pleasanton, Calif.) were coated and air dried consecutively with solutions containing 100 μg/ml type I collagen, 5 μg/ml fibronectin, and 5 μg reconstituted basement membrane (produced from the Englebreth-Holm-Swarm tumor (Kleinman, et al. (1986) Biochemistry, 25:312-318), producing a continuous 10 μm thick coating of matrix material. Boyden chambers were assembled by adding 10 ng/ml PDGF BB in DMEM to the lower (chemoattractant) chamber. Cells (approximately 200,000) suspended in DMEM containing 0.1% BSA were then added to the upper chamber. […] The chambers were then incubated for 4 hours at 37° C. in a 5% CO2 atmosphere. At the end of the incubation period, the cells were fixed and stained with hematoxylin and eosin. The cells on the upper surface (non-invaders) were mechanically removed and the cells on the underside of the filter (invaders) were counted under 400× magnification (four random fields were counted per filter and all experiments were run in triplicate, and each triplicate assay was repeated at least three times on separate occasions using different VSMC preparations). […]

VSMC [2] = test: [3H]thymidine incorporation in cultured VSMC
[3] = test system: Vascular Smooth Muscle Cells (VSMCs); test: Chemoinvasion (Boyden chamber) assay, PDGF-BB as attractant; type: cell-based, rat
Description: (§1) Vascular Smooth Muscle Cells (VSMCs) were isolated by collagenase/elastase enzymatic digestion of the medial layers of the rat aorta obtained from 6 month old Wistar rats. The cells were maintained in culture with 10% fetal calf serum, high glucose DMEM, and amino acid supplement. Cell cultures were maintained at 37° C. in 5% CO2.
Chemoinvasion (Boyden chamber) assays were performed using modified Boyden chamber (Albini, et al. (1987) Cancer Res., 47:3239-3245), comprising an upper chamber separated from a lower chamber by a porous PVPF filter. PVPF filters (8 μm pore diameter, Nucleopore Filters, Pleasanton, Calif.) were coated and air dried consecutively with solutions containing 100 μg/ml type I collagen, 5 μg/ml fibronectin, and 5 μg reconstituted basement membrane (produced from the Englebreth-Holm-Swarm tumor (Kleinman, et al. (1986) Biochemistry, 25:312-318), producing a continuous 10 μm thick coating of matrix material. Boyden chambers were assembled by adding 10 ng/ml PDGF BB in DMEM to the lower (chemoattractant) chamber. Cells (approximately 200,000) suspended in DMEM containing 0.1% BSA were then added to the upper chamber. […] The chambers were then incubated for 4 hours at 37° C. in a 5% CO2 atmosphere. At the end of the incubation period, the cells were fixed and stained with hematoxylin and eosin. The cells on the upper surface (non-invaders) were mechanically removed and the cells on the underside of the filter (invaders) were counted under 400× magnification (four random fields were counted per filter and all experiments were run in triplicate, and each triplicate assay was repeated at least three times on separate occasions using different VSMC preparations). Chemotaxis was assayed in analogous fashion in the Boyden chambers described above, except that the reconstituted basement membrane was omitted.
as §1, with “VSMC's” for “Vascular Smooth Muscle Cells (VSMCs)”, “collagense/elastase” for “collagenase/elastase”
Chemoinvasion assays were performed using a modified Boyden chamber, consisting of an upper chamber separated from a lower chamber by a porous PVPF filter. PVPF filters (8 μm pore diameter, Nucleopore Filters Pleasanton, Calif.) were coated and air dried consecutively with solutions containing 100 μg/ml type I collagen, […] fibronectin, and 5 μg reconstituted basement membrane (produced from the Englebreth-Holm-Swarm tumor), producing a continuous 10 μm thick coating of matrix material. Boyden chambers were assembled with PDGF-BB 10 ng/ml in DMEM in the lower (chemoattractant) chamber, then cells (approximately 200,000) suspended in DMEM containing 0.1% BSA were added to the upper chamber. Some of the cells used in these assays were pretreated 18 hours with deuterium oxide (25%, 50%, or 75% v/v substitution for H2O) in culture. In the deuterium oxide-treated groups, ^2H2O substituted DMEM (v/v) was added to the upper and lower chambers at the same concentration as that used for pretreatment. The chambers were then incubated for 4 hours at 37° C. in a humidified 5% CO2 atmosphere. […] After the cells on the upper surface of the filter (non-invaders) were mechanically removed, the cells on the underside (invaders) were counted under 400 X magnification (four random fields were counted per filter and all experiments were run in triplicate).

[4] = test system: VSMC collagenase secretion; test: Gelatinase zymography of Boyden assay supernatants; type: cell-based, rat; conditions: taxol range 30 pM to 100 nM
Description: Gelatinase zymography was performed on the superannuates removed after the 4 hour conclusion of the Boyden assays described above. Gelatin-degrading proteinases secreted into the media by VSMCs were analyzed by non-reducing sodium dodecyl sulfate-polyacrylamide gel electrophoresis in 10% polyacrylamide gels containing 0.1% (w/v) gelatin. Following electrophoresis, the gelatinases were renatured by incubating the gel for 30 min. at 23° C. in 2.5% (v/v) Triton X-100 followed by 18 hour incubation at 37° C. in 0.2 M NaCl, 5 mM CaCl2 0.02% Brij 35 (w/v), 50 mM Tris-HCI (pH 7.6). The gels were stained for 90 minutes with 0.5% Coomassie Brilliant Blue G-250 and destained with 10% acetic acid, 40% methanol. Gelatinolytic activity was indicated by a clear band against the background of the blue-stained gelatin.

VSMC [5] = test: Bromodeoxyuridine (BrDU) incorporation in cultured VSMC; type: cell-based, rat; conditions: various 2H2O concentrations
Description: Incorporation of the thymidine analog, bromodeoxyuridine (BrDU) was measured to determine the effect of deuterium oxide on VSMC DNA synthesis. […] Following 20 hr incubation in 10% FCS+DMEM at various ^2H2O concentrations, 10 μM BrDU was added and the incubation continues for an additional 4 hr. […] The cells were incubated for 2 hr with 1N HCl to denature the DNA, and subsequently washed 4 times in PBS. Mouse monoclonal BrDU antibody (Boehringer Mannheim) in 2% BSA-PBS was incubated with cells for 1 hr. After PBS wash, goat anti-mouse antibody conjugated with alkaline phosphatase was added. Cell nuclei containing BrDU substituted for thymidine stained red with alkaline phosphatase substrate, while all other nuclei stained blue. The fraction of BrDU-positive nuclei was compared between control (defined as 100%) and that of the deuterium oxide-pretreated groups.

[6] = cross sectional area, 2 mg/kg i.p., 11 days after injury

IC50 (c-fos mRNA expression; Rattus norvegicus, cultured VSMC, read-out: half-maximal inhibitory concentration, PDGF-BB-stimulated c-fos mRNA expression) [nM]	IC50 (VSMC [2]; Rattus norvegicus, VSMC, read-out: half-maximal inhibitory concentration, VSMC [3H]thymidine incorporation) [nM]	IC50 ([3]; Rattus norvegicus, VSMC, 18 h pretreatment, PDGF-BB attractant, 4 h incubation, read-out: half-maximal inhibitory concentration, VSMC invasion) [nM]	level of VSMC collagenase secretion compared to control [4]	SMILES	inhibition of c-fos mRNA expression above 20 nM (c-fos mRNA expression; above 20 nM taxol)	reduction of neointimal area compared to vehicle treated animals (rat carotid artery; 2 mg/kg i.p. once daily, 11 days after injury) [%]	Intima (rat carotid artery; [6]) [mm^2]	Media (rat carotid artery; [6]) [mm^2]	I/M (rat carotid artery; intima/media ratio, 2 mg/kg i.p., 11 days after injury)	discernible neointima in taxol-treated animals (rat carotid artery; several of the taxol-treated animals, denuded endothelium present)	microtubule bundling in VSMC's cultured on plastic (polymerized tubulin; 0.1, 1, 10 nM taxol, 18-hour pre-treatment)	outcome of chemotaxis assay compared with chemoinvasion assay (VSMC [1])	inhibition of [3H]thymidine incorporation at 1 nM (VSMC [2]; 1 nM taxol)	inhibition of [3H]thymidine incorporation at 100 nM (VSMC [2]; 100 nM taxol)	inhibition of VSMC invasion at 30 pM ([3]; 30 pM (the lowest dose used))	inhibition of VSMC invasion at 100 nM ([3]; 100 nM taxol)	microtubule hyperpolymerization in cultured VSMCs (polymerized tubulin; 18 hours with 25%, 50% or 75% deuterium oxide)	inhibition of VSMC Boyden chamber invasion at 75% 2H2O ([3]; 75% 2H2O)	half-maximal inhibition of PDGF-mediated VSMC Boyden chamber invasion ([3]; 18 h pretreatment, v/v substitution for H2O) [% 2H2O]	effect on cultured VSMC proliferation and DNA synthesis (BrDU incorporation) (VSMC [5])
1	5	0.5	did not vary significantly	CC(=O)O[C@H]1C(=O)[C@@]2(C)[C@H]([C@H](OC(=O)c3ccccc3)[C@]3(O)C[C@H](OC(=O)[C@H](O)[C@@H](NC(=O)c4ccccc4)c4ccccc4)C(C)=C1C3(C)C)[C@]1(OC(C)=O)CO[C@@H]1C[C@@H]2O [Taxol]	essentially complete inhibition	70	0.03 ± 0.01	0.16 ± 0.02	0.18 ± 0.04	virtually no discernible neointimal	dose-dependent microtubule bundling	identical outcome	significant inhibition	essentially complete inhibition	significant inhibition	essentially complete inhibition				
				[2H]O[2H] [deuterium oxide]													dose-dependent microtubule hyperpolymerization	nearly complete inhibition	25	inhibited cultured VSMC proliferation and DNA synthesis in a dose-dependent fashion
